Assay results: US8921373B2, “Compounds having TRPV1 antagonistic activity and uses thereof” (Shionogi & Co., Ltd., priority 2010, dated 2014)
Read-outs that look alike come from different tables or passages of the source.

Biological target: human recombinant TRPV1 (Homo sapiens (Human), UniProt Q8NER1)
Assay: TRPV1 pH-Based Assay (Protocol 2, Ca2+ response in TRPV1/CHO cells, Fura-2)
Format: cell-based
Description: For Protocol 2, a Chinese Hamster Ovary cell line (CHO) that has been engineered to constitutively express human recombinant TRPV1 was used (TRPV1/CHO cells). The TRPV1/CHO cell line was generated as described below.
TRPV1/CHO cells were seeded in the 96-well clear-bottom black-wall plate (Nunc) at densities of 1-2×10^4 cells/well and grown in 100 μL of culture medium (alpha-MEM supplemented with 10% FBS, 20 mM HEPES, 1 mg/mL geneticin and 1% antibiotic-antimycotic mixed stock solution) for 1-2 days before the experiment.
(2) The 96-well plate was incubated at 37° C. for 45 min.
(3) The loading buffer was removed from each well. […] The wells were then refilled with 80 μL of measuring buffer.
(4) After an incubation at 4° C. for 15 min, the 96-well plate was transferred to FDSS-3000 (Hamamatsu Photonics, Japan).
(5) The Fura-2 fluorescent intensity was monitored at a wavelength of 340 nm and at 380 nm, respectively, at a rate of 0.5 Hz for a total of 240 seconds. After 16 time points (32 sec) of baseline detection, 20 μL of agonist solution was added to each well. The final volume was 100 μL/well.
(6) Fluorescence intensity ratio refers to the fluorescence intensity at 340 nm over the fluorescence intensity at 380 nm at a particular time point. The baseline was set as the average of the fluorescent intensity ratios for the first 16 time points before the addition of agonist solution. The maximum response was the highest fluorescent intensity ratio during the 60 time points following addition of agonist solution.
(7) Maximal signal ratios from each well were calculated as output data using the FDSS-3000 analysis program. Data were analyzed using Excel (Microsoft) and XLfit (idbs) software.
Two different agonist solutions with different H2SO4 concentrations were used for the pH assay (FIG. 3A). For one half of a 96-well plate one agonist solution was used, for the other half the other agonist solution. The agonist solutions were obtained by diluting sulfuric acid (H2SO4, 1M) with measuring buffer. The concentrations for the two agonist solutions were determined as described above in Section 2 of Protocol 2.
The sulfuric acid concentrations between the two agonist solutions differed by 0.5 mM. […] After 1:4 dilution of the agonist solutions, the final sulfuric acid concentration was 3.2 mM and 3.3 mM, respectively. The resulting pH value for the pH assay was 5.0 to 5.1.
Test compounds were dissolved in DMSO to yield 1 mM stock solutions. […] The thereby-obtained solutions were further diluted in measuring buffer (1:100) as 10× stock serial dilutions with a DMSO concentration of 1%. 10 μL of a 10× stock was added into each well at step 3.3.(4) of Protocol 2.
Steps (1) and (2) of this Assay were the same as steps 2.2.(1) and 2.2.(2) of Protocol 2, respectively.
(3) The cells were washed twice with 150 μL of measuring buffer (mentioned in 2.2.(3) of Protocol 2, no probenecid). The wells were subsequently refilled with 70 μL of measuring buffer.
(4) Either 10 μl of measuring buffer or 10 μL of 10× stock serial dilution of test compound (described in 3.2. above) were applied to each well. Usually, only one test compound was tested per 96-well plate. The number of replicates per 96-well plate for a particular antagonist at a particular concentration was 7×2 since two different sulfuric acid concentrations were used per 96-well plate (N=7×2) (FIG. 3).
Step (5) was the same as 2.2.(4) above.
(6) Fura-2 fluorescent intensity was monitored as described in 2.2.(5) above. After 16 time points of baseline detection, 20 μL of agonist solution (measuring buffer titrated with H2SO4 to yield pH 5.0-5.1 when mixed 1:4 with the measuring buffer containing test compound) was added to each well (final volume 100 μL/well).
Steps (7) and (8) were as described in 2.2.(6) and 2.2.(7) above, respectively.
(1) The pH values of the buffer in the wells of A1→H1 and A7→H7 (longitudinally; FIG. 3) were measured one by one using a portable pH meter.

[1] = TRPV1/CHO cells, pH 5.0-5.1, read-out: IC50 value by the pH-Based Assay
[2] = TRPV1/CHO cells, pH 5.0-5.1, compounds of the invention, read-out: TRPV1 IC50 Potency (pH-Based Assay), Compound IC50
[3] = TRPV1/CHO cells, pH 5.0-5.1, comparative compounds without the substituted alkyl group, read-out: TRPV1 IC50 Potency (pH-Based Assay), Comparative compound IC50

human recombinant TRPV1, sequence (Q8NER1 whole entry): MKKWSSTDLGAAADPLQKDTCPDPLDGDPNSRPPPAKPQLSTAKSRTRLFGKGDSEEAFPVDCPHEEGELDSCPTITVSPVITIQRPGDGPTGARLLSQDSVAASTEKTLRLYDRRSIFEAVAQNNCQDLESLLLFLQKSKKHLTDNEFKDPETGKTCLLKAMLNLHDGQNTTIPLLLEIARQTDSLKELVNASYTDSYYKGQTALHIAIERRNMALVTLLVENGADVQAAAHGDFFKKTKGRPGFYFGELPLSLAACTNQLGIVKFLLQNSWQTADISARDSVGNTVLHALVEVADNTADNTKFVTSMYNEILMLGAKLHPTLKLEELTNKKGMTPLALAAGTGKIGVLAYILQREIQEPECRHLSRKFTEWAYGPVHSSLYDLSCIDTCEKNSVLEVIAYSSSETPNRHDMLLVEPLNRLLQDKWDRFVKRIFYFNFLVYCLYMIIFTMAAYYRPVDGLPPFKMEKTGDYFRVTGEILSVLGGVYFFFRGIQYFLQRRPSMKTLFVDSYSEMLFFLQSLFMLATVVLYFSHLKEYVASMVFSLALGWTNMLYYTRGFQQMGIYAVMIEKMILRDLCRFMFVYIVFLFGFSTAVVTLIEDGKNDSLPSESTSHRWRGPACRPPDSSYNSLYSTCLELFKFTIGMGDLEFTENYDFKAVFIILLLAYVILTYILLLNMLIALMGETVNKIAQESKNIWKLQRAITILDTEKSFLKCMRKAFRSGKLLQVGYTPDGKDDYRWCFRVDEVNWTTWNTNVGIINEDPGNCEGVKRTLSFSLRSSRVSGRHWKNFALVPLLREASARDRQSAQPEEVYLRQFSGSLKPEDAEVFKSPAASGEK

SMILES	IC50 [1]	further results
O=C(Nc1nc2cc(F)c(F)cc2s1)N1CCN(c2ncc(C[C@@H](O)CO)cc2F)CC1 [AFA]	–	IC50: ≤ 50 nM
Cc1cc(NC(=O)N2CC=C(c3ncc(C(F)(F)[C@@H](O)CO)cc3Cl)CC2)ccc1C(F)(F)F [ADC, (S)-4-(3-chloro-5-(1,1-difluoro-2,3-dihydroxypropyl)pyridin-2-yl)-N-(3-methyl-4-(trifluoromethyl)phenyl)-5,6-dihydropyridine-1(2H)-carboxamide]	≤ 50 nM	–
O=C(Nc1ccc(OC(F)(F)F)cn1)N1CC=C(c2ncc(C(F)(F)[C@@H](O)CO)cc2Cl)CC1	–	IC50 [2]: 46 nM
O=C(Nc1ccc(C(F)(F)F)cc1)N1CC=C(c2ncc(CC(O)CO)cc2Cl)CC1 (stereo not shown)	–	IC50 [2]: 12 nM
O=C(Nc1ccc(C(F)(F)F)c(Cl)c1)N1CC=C(c2ncccc2Cl)CC1 [drawing 478, reference compound]	–	IC50 [3]: 139 nM
Cc1cc([C@H](O)[C@@H](O)CO)cnc1C1(F)CCN(C(=O)Nc2ccc(C(F)(F)F)c(Cl)c2)CC1 [ABH, N-(3-Chloro-4-(trifluoromethyl)phenyl)-4-fluoro-4-(3-methyl-5-((1S,2S)-1,2,3-trihydroxypropyl)pyridin-2-yl)piperidine-1-carboxamide]	≤ 50 nM	–
CO[C@@H]1CN(c2ncc(C[C@@H](O)CO)cc2Cl)CCN1C(=O)Nc1nc2ccc(F)cc2s1	–	IC50 [2]: 1 nM
O=C(Nc1nc2ccccc2s1)N1CCN(c2ncc(C[C@H](O)CO)cc2Cl)CC1 [ADS]	≤ 50 nM	–
O=C(Nc1nc2ccc(F)cc2s1)N1CC=C(c2ncccc2Cl)CC1 [reference compound]	–	IC50 [3]: 943 nM
C[C@@H]1CN(c2ncc(C[C@H](O)CO)cc2F)CCN1C(=O)Nc1nc2ccccc2s1 [AGX]	≤ 50 nM	–
O=C(Nc1ccc(C(F)(F)F)c(Cl)c1)N1CC=C(c2ncc(CC(O)CO)cc2Cl)CC1 (stereo not shown)	–	IC50 [2]: 10 nM
C[C@H]1CN(c2ncc(C[C@H](O)CO)cc2F)CCN1C(=O)Nc1nc2cc(F)c(F)cc2s1 [AEZ]	≤ 50 nM	–
O=C(Nc1ccc(OC(F)(F)F)c(Cl)c1)N1CC=C(c2ncc(C[C@@H](O)CO)cc2Cl)CC1	–	IC50 [2]: 17 nM
O=C(Nc1ccc(C(F)(F)F)c(Cl)c1)N1CCC(F)(c2ncc([C@H](O)[C@@H](O)CO)cc2Cl)CC1 [ABG, N-(3-Chloro-4-(trifluoromethyl)phenyl)-4-(3-chloro-5-((1S,2S)-1,2,3-trihydroxypropyl)pyridin-2-yl)-4-fluoropiperidine-1-carboxamide]	≤ 50 nM	–
C[C@H]1CN(C(=O)Nc2nc3ccc(F)cc3s2)CCN1c1ncc(C[C@H](O)CO)cc1F [AFM, (S)-4-(5-((S)-2,3-dihydroxypropyl)-3-fluoropyridin-2-yl)-N-(6-fluorobenzo[d]thiazol-2-yl)-3-methylpiperazine-1-carboxamide]	≤ 50 nM	–
C[C@H]1CN(C(=O)Nc2nc3cc(F)c(F)cc3s2)CCN1c1ncc(C[C@H](O)CO)cc1F [AGL]	≤ 50 nM	–

SMILES	IC50 [1]	further results
O=C(Nc1ccc(C(F)(F)F)cn1)N1CC=C(c2ncc(CC(O)CO)cc2Cl)CC1 (stereo not shown)	–	IC50 [2]: 38 nM
O=C(Nc1nc2ccc(F)cc2s1)N1C2CCC1CN(c1ncc(C[C@H](O)CO)cc1F)C2 [AHB]	≤ 50 nM	–
C[C@H]1CN(c2ncc(C[C@@H](O)CO)cc2C(F)(F)F)CCN1C(=O)Nc1nc2ccccc2s1 [AGV]	≤ 50 nM	–
O=C(Nc1nc2ccc(F)cc2s1)N1CC=C(c2ncc(C[C@H](O)CO)cc2Cl)CC1 [AAH]	≤ 50 nM	–
O=C(Nc1ccc(C(F)(F)F)cn1)N1CC=C(c2ncc(C[C@@H](O)CO)cc2Cl)CC1 [AAJ, (R)-4-(3-Chloro-5-(2,3-dihydroxypropyl)pyridin-2-yl)-N-(5-(trifluoromethyl)pyridin-2-yl)-5,6-dihydropyridine-1(2H)-carboxamide]	≤ 50 nM	–
O=C(Nc1nc2ccc(F)cc2s1)N1CC=C(c2ncc(CC(O)CO)cc2Cl)CC1 (stereo not shown)	–	IC50 [2]: 5 nM
C[C@H]1CN(c2ncc(C[C@@H](O)CO)cc2F)CCN1C(=O)Nc1nc2ccc(F)cc2s1 [AEJ]	≤ 50 nM	–
O=C(Nc1nc2ccc(C(F)(F)F)cc2s1)N1CCC(F)(c2ncc([C@H](O)[C@H](O)CO)cc2Cl)CC1	–	IC50 [2]: 171 nM
C[C@@H]1CN(c2ncccc2Cl)CCN1C(=O)Nc1nc2ccc(F)cc2s1 [reference compound]	–	IC50 [3]: 24 nM
O=C(Nc1ccc(C(F)(F)F)cn1)N1CCC(F)(c2ncc([C@H](O)[C@H](O)CO)cc2Cl)CC1	–	IC50 [2]: 143 nM
O=C(Nc1nc2ccc(C(F)(F)F)cc2s1)N1CCC(F)(c2ncc(C[C@H](O)CO)cc2Cl)CC1	–	IC50 [2]: 614 nM
Cc1cc(NC(=O)N2CC=C(c3ncc(C[C@H](O)CO)cc3Cl)CC2)ccc1C(F)(F)F [ACG, (S)-4-(3-Chloro-5-(2,3-dihydroxypropyl)pyridin-2-yl)-N-(3-methyl-4-(trifluoromethyl)phenyl)-5,6-dihydropyridine-1(2H)-carboxamide]	≤ 50 nM	–
O=C(Nc1ccc(C(F)(F)F)c(Cl)c1)N1CC=C(c2ncc(C[C@@H](O)CO)cc2F)CC1 [AAY, (R)-N-(3-chloro-4-(trifluoromethyl)phenyl)-5-(2,3-dihydroxypropyl)-3-fluoro-5′,6′-dihydro-[2,4′-bipyridine]-1′(2′H)-carboxamide]	≤ 50 nM	–
C[C@H]1CN(c2ncc(C[C@H](O)CO)cc2F)CCN1C(=O)Nc1nc2ccc(F)cc2s1 [AEL]	≤ 50 nM	–
O=C(Nc1ccc(C(F)(F)F)c(Cl)c1)N1CC=C(c2ncc(C[C@H](O)CO)cc2F)CC1 [AAZ, (S)-N-(3-chloro-4-(trifluoromethyl)phenyl)-5-(2,3-dihydroxy-propyl)-3-fluoro-5′,6′-dihydro-[2,4′-bipyridine]-1′(2′H)-carboxamide]	≤ 50 nM	–
O=C(Nc1ccc(C(F)(F)F)c(Cl)c1)N1CC=C(c2ncccc2Cl)CC1 [drawing 493, reference compound]	–	IC50 [3]: 77 nM

Now from value to compound, other results behind:

IC50 [1]	SMILES	further results
≤ 50 nM	Cc1ccc2nc(NC(=O)N3CCN(c4ncc(C[C@@H](O)CO)cc4F)[C@@H](C)C3)sc2c1 [AFO, (S)-4-(5-((R)-2,3-dihydroxypropyl)-3-fluoropyridin-2-yl)-3-methyl-N-(6-methylbenzo[d]thiazol-2-yl)piperazine-1-carboxamide]	–
≤ 50 nM	Cc1cc2nc(NC(=O)N3CCN(c4ncc(C[C@H](O)CO)cc4F)C[C@@H]3C)sc2cc1C [AEU]	–
≤ 50 nM	Cc1cc(NC(=O)N2CCC(F)(c3ncc(C[C@H](O)CO)cc3F)CC2)ccc1OC(F)(F)F [ACR, (S)-4-(5-(2,3-dihydroxypropyl)-3-fluoropyridin-2-yl)-4-fluoro-N-(3-methyl-4-(trifluoromethoxy)phenyl)piperidine-1-carboxamide]	–
≤ 50 nM	Cc1cc2nc(NC(=O)N3CCN(c4ncc(C[C@@H](O)CO)cc4F)C[C@@H]3C)sc2cc1C [AET]	–
≤ 50 nM	Cc1ccc2nc(NC(=O)N3CCN(c4ncc(C[C@H](O)CO)cc4F)[C@@H](C)C3)sc2c1 [AFP, (S)-4-(5-((S)-2,3-dihydroxypropyl)-3-fluoropyridin-2-yl)-3-methyl-N-(6-methylbenzo[d]thiazol-2-yl)piperazine-1-carboxamide]	–
≤ 50 nM	C[C@@H]1CN(c2ncc(C[C@H](O)CO)cc2F)C[C@H](C)N1C(=O)Nc1nc2ccc(F)cc2s1 [AFU]	–
≤ 50 nM	C[C@H]1CN(c2ncc(C[C@H](O)CO)cc2F)CCN1C(=O)Nc1nc2ccc(SC(F)(F)F)cc2s1 [AGR]	–
≤ 50 nM	O=C(Nc1nc2ccc(F)cc2s1)N1CC=C(c2ncc(C[C@@H](O)CO)cc2Cl)CC1 [AAL, (R)-4-(3-Chloro-5-(2,3-dihydroxypropyl)pyridin-2-yl)-N-(6-fluorobenzo[d]thiazol-2-yl)-5,6-dihydropyridine-1(2H)-carboxamide]	–
